Read-outs that look alike come from different tables or passages of the source.
Key:
HCov OC43 = test: HCoV OC43 cytopathic effect (CPE) assay, CellTiter Glo; assay type: cell-based, human coronavirus (HCov) OC43
[1] = biological target: COVID-19 (nCoV-2019, SARS-CoV2) Mpro (Severe acute respiratory syndrome coronavirus 2, UniProt P0DTD1); test: COVID-19 (nCoV-2019, SARS-CoV2) Mpro enzymatic assay; assay type: biochemical; conditions: 25 nM Mpro, 25 μM substrate; read-out: COVID-19 Mpro IC50
229E Mpro = 229E Mpro (Human coronavirus 229E, UniProt P0C6X1); test: 229E Mpro enzymatic assay (standard methods, SARS-CoV2 Mpro assay given as exemplary); assay type: biochemical, human coronavirus (HCov) 229E
How it was run: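 IC50 for 229E Mpro by standard methods; exemplary SARS-CoV-2 protocol used C-His6-tagged Mpro from E. coli, 25 nM enzyme, 25 μM substrate (Km 13.5 μM), in Tris-HCl pH 7.3, NaCl, EDTA, TCEP, 0.1% BSA. Inhibition normalised to no-compound and full-effect controls; four-parameter fit.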

[2] = read-out: OC43 IC50 (uM) MEDIAN, median
[3] = Betacoronavirus 1, OC43, read-out: OC43 IC50 (uM) MEDIAN, median

Sequence of 229E Mpro (P0C6X1 2966-3267): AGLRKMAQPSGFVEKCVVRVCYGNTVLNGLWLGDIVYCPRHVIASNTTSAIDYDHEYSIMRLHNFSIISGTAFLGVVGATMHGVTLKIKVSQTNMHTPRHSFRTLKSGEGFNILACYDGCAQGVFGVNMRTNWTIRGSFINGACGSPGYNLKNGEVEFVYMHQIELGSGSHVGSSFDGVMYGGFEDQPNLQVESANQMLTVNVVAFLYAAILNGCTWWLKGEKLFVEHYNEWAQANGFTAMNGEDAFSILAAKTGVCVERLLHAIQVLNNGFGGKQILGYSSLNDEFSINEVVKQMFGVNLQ

## N#CN1C[C@H](O)C[C@@H]1C(=O)N(c1ccc(C2CC2)c(F)c1)C(C(=O)NC1CCCCC1)c1cccnc1 (single isomer, unassigned) [Compound 767 Isomer 2]
HCov OC43; [2]
  IC50: 2 to 10 µM
[1]
  IC50: 2 to 10 µM
229E Mpro; read-out: 229E Mpro EC50
  EC50: < 2 µM

## N#CN1C[C@H](O)C[C@@H]1C(=O)N(c1ccc(C(F)(C(F)(F)F)C(F)(F)F)cc1)C(C(=O)NC1CCCCC1)c1cccnc1 (single isomer, unassigned) [Compound 779 Isomer 2]
HCov OC43; [2]
  IC50: 2 to 10 µM
[1]
  IC50: 2 to 10 µM
229E Mpro; 229E Mpro EC50
  EC50: 2 to 10 µM

## N#CN1C[C@H](O)C[C@@H]1C(=O)N(c1ccc(S(F)(F)(F)(F)F)cc1)C(C(=O)NC1CCCCC1)c1cccnc1 (single isomer, unassigned) [Compound 791 Isomer 1]
HCov OC43; [3]
  IC50: < 2 µM
[1]
  IC50: < 2 µM
229E Mpro; 229E Mpro EC50
  EC50: < 2 µM

## N#CN1C[C@H](O)C[C@@H]1C(=O)N(c1ccc(C2(C(F)(F)F)CC2)cc1)C(C(=O)NC1CCC(F)(F)CC1)c1cncc(F)c1 (single isomer, unassigned) [Compound 815a Isomer 1]
HCov OC43; [3]
  IC50: < 2 µM
[1]
  IC50: < 2 µM
229E Mpro; 229E Mpro EC50
  EC50: < 2 µM

## N#CN1C[C@H](O)C[C@@H]1C(=O)N(c1ccc(C2(C(F)(F)F)CC2)cc1)C(C(=O)NC1CCC(F)(F)CC1)c1cncc(F)c1 (single isomer, unassigned) [Compound 815a Isomer 2]
HCov OC43; [2]
  IC50: < 2 µM
[1]
  IC50: < 2 µM
229E Mpro; read-out: 229E Mpro EC50
  EC50: < 2 µM

## N#CN1C[C@@H](OC(F)F)C[C@@H]1C(=O)N(c1ccc(S(F)(F)(F)(F)F)cc1)C(C(=O)NC1CCC(F)(F)CC1)c1cncc(F)c1 (single isomer, unassigned) [Compound 823a Isomer 1]
HCov OC43; [3]
  IC50: < 2 µM
[1]
  IC50: < 2 µM
229E Mpro; 229E Mpro EC50
  EC50: < 2 µM

## N#CN1C[C@@H](OC(F)F)C[C@@H]1C(=O)N(c1ccc(S(F)(F)(F)(F)F)cc1)C(C(=O)NC1CCC(F)(F)CC1)c1cncc(F)c1 (single isomer, unassigned) [Compound 823a Isomer 2]
HCov OC43; [2]
  IC50: 2 to 10 µM
[1]
  IC50: < 2 µM
229E Mpro; read-out: 229E Mpro EC50
  EC50: < 2 µM

## CC(C)(C)c1ccc(N(C(=O)[C@H]2CC(F)(F)CN2C#N)C(C(=O)NC2CCCCC2)c2cccnc2)cc1 (single isomer, unassigned) [Compound 876 Isomer 2]
HCov OC43; read-out: OC43 IC50 (uM) MEDIAN, median, listed as 876 Isomer 2
  IC50: > 30 µM
[1]
  IC50: 10 to 30 µM
229E Mpro; read-out: 229E Mpro EC50
  EC50: < 2 µM

## CC(C)(C)c1ccc(N(C(=O)[C@H]2[C@H](F)CCN2C#N)C(C(=O)NC2CCCCC2)c2cccnc2)cc1 (single isomer, unassigned) [Compound 910 Isomer 1]
HCov OC43; [3]
  IC50: < 2 µM
[1]
  IC50: < 2 µM
229E Mpro; 229E Mpro EC50
  EC50: < 2 µM

## CC(C)(C)c1ccc(N(C(=O)[C@H]2[C@H](F)CCN2C#N)C(C(=O)NC2CCCCC2)c2cccnc2)cc1 (single isomer, unassigned) [Compound 910 Isomer 2]
HCov OC43; [2]
  IC50: 2 to 10 µM
[1]
  IC50: 10 to 30 µM
229E Mpro; read-out: 229E Mpro EC50
  EC50: < 2 µM

## CC(C)(C)c1ccc(N(C(=O)[C@H]2CCCN2C#N)C(C(=O)N2CCOCC2)c2cccnc2)cc1 (single isomer, unassigned) [Compound 959 Isomer 1]
HCov OC43; read-out: OC43 IC50 (uM) MEDIAN, median, listed as 959 Isomer 1
  IC50: 10 to 30 µM
[1]
  IC50: > 30 µM
229E Mpro; 229E Mpro EC50
  EC50: 2 to 10 µM

## CC(C)(C)c1ccc(N(C(=O)[C@H]2CCCN2C#N)C(C(=O)N2CCOCC2)c2cccnc2)cc1 (single isomer, unassigned) [Compound 959 Isomer 2]
HCov OC43; read-out: OC43 IC50 (uM) MEDIAN, median, listed as 959 Isomer 2
  IC50: 2 to 10 µM
[1]
  IC50: 2 to 10 µM
229E Mpro; 229E Mpro EC50
  EC50: < 2 µM

## CC(C)(C)c1ccc(N(C(=O)[C@H]2CCCN2C#N)C(C(=O)N2CCNC(=O)C2)c2cccnc2)cc1 (single isomer, unassigned) [Compound 961 Isomer 1]
HCov OC43; read-out: OC43 IC50 (uM) MEDIAN, median, listed as 961 Isomer 1
  IC50: 2 to 10 µM
[1]
  IC50: 2 to 10 µM
229E Mpro; 229E Mpro EC50
  EC50: < 2 µM

## CC(C)(C)c1ccc(N(C(=O)[C@H]2CCCN2C#N)C(C(=O)N2CCNC(=O)C2)c2cccnc2)cc1 (single isomer, unassigned) [Compound 961 Isomer 2]
HCov OC43; read-out: OC43 IC50 (uM) MEDIAN, median, listed as 961 Isomer 2
  IC50: 10 to 30 µM
[1]
  IC50: > 30 µM
229E Mpro; 229E Mpro EC50
  EC50: 2 to 10 µM

## CC(C(=O)NC1CCC(F)(F)CC1)(c1cccnc1)N(C(=O)[C@H]1C[C@@](C)(O)CN1C#N)c1ccc(S(F)(F)(F)(F)F)cc1 (single isomer, unassigned) [Compound 1077 Isomer 1]
HCov OC43; [3]
  IC50: 2 to 10 µM
[1]
  IC50: 10 to 30 µM
229E Mpro; 229E Mpro EC50
  EC50: < 2 µM

## CC(C(=O)NC1CCC(F)(F)CC1)(c1cccnc1)N(C(=O)[C@H]1C[C@@](C)(O)CN1C#N)c1ccc(S(F)(F)(F)(F)F)cc1 (single isomer, unassigned) [Compound 1077 Isomer 2]
HCov OC43; [2]
  IC50: < 2 µM
[1]
  IC50: < 2 µM
229E Mpro; read-out: 229E Mpro EC50
  EC50: < 2 µM

## N#CN1C[C@H]2C[C@H]2[C@@H]1C(=O)N(c1ccc(S(F)(F)(F)(F)F)cc1)C(C(=O)NC1CCC(F)(F)CC1)c1cncc(F)c1 (single isomer, unassigned) [Compound 1095b Isomer 1]
HCov OC43; [3]
  IC50: < 2 µM
[1]
  IC50: < 2 µM
229E Mpro; 229E Mpro EC50
  EC50: < 2 µM

## N#CN1C[C@H](F)C[C@@H]1C(=O)N(c1ccc(S(F)(F)(F)(F)F)cc1)C(C(=O)NC1CCC(F)(F)CC1)c1cncc(F)c1 (single isomer, unassigned) [Compound 1098 Isomer 1]
HCov OC43; [3]
  IC50: 2 to 10 µM
[1]
  IC50: 2 to 10 µM
229E Mpro; 229E Mpro EC50
  EC50: < 2 µM

## N#CN1C[C@H](F)C[C@@H]1C(=O)N(c1ccc(S(F)(F)(F)(F)F)cc1)C(C(=O)NC1CCC(F)(F)CC1)c1cncc(F)c1 (single isomer, unassigned) [Compound 1098 Isomer 2]
HCov OC43; [2]
  IC50: < 2 µM
[1]
  IC50: < 2 µM
229E Mpro; read-out: 229E Mpro EC50
  EC50: < 2 µM

## N#CN1C[C@@H](F)C[C@@H]1C(=O)N(c1ccc(S(F)(F)(F)(F)F)cc1)C(C(=O)NC1CCC(F)(F)CC1)c1cncc(F)c1 (single isomer, unassigned) [Compound 1099 Isomer 1]
HCov OC43; [3]
  IC50: < 2 µM
[1]
  IC50: < 2 µM
229E Mpro; 229E Mpro EC50
  EC50: < 2 µM

## N#CN1C[C@@H](F)C[C@@H]1C(=O)N(c1ccc(S(F)(F)(F)(F)F)cc1)C(C(=O)NC1CCC(F)(F)CC1)c1cncc(F)c1 (single isomer, unassigned) [Compound 1099 Isomer 2]
HCov OC43; [2]
  IC50: 2 to 10 µM
[1]
  IC50: < 2 µM
229E Mpro; read-out: 229E Mpro EC50
  EC50: < 2 µM

## CO[C@@H]1C[C@H](C(=O)N(c2ccc(S(F)(F)(F)(F)F)cc2)C(C(=O)N(C)CC(=O)NC2CC2)c2cccnc2)N(C#N)C1 (single isomer, unassigned) [Compound 1122]
HCov OC43; [3]
  IC50: < 2 µM
[1]
  IC50: < 2 µM
229E Mpro; 229E Mpro EC50
  EC50: < 2 µM

## CC1(C)CCNc2cc(N(C(=O)[C@H]3C[C@@](C)(O)CN3C#N)C(C(=O)NC3CCC(F)(F)CC3)c3cncc(F)c3)ccc21 (single isomer, unassigned) [Compound 1127 Isomer 1]
HCov OC43; [2]
  IC50: < 2 µM
[1]
  IC50: < 2 µM
229E Mpro; 229E Mpro EC50
  EC50: < 2 µM

## CC1(C)CCNc2cc(N(C(=O)[C@H]3C[C@@](C)(O)CN3C#N)C(C(=O)NC3CCC(F)(F)CC3)c3cncc(F)c3)ccc21 (single isomer, unassigned) [Compound 1127 Isomer 2]
HCov OC43; [3]
  IC50: < 2 µM
[1]
  IC50: < 2 µM
229E Mpro; read-out: 229E Mpro EC50
  EC50: < 2 µM

## CC1(C)CN(C#N)[C@@H](C(=O)N(c2ccc(C(C)(C)C)cc2)C(C(=O)NC2CCOCC2)c2cccnc2)CO1 (single isomer, unassigned) [Compound 1141]
HCov OC43; [3]
  IC50: 2 to 10 µM
[1]
  IC50: < 2 µM
229E Mpro; 229E Mpro EC50
  EC50: < 2 µM

## N#CN1CC(=O)NCC1C(=O)N(c1ccc(S(F)(F)(F)(F)F)cc1)C(C(=O)NC1CCC(F)(F)CC1)c1cncc(F)c1 (single isomer, unassigned) [Compound 1160 Isomer 1, 1-cyano-N-[2-[(4,4-difluorocyclohexyl)amino]-1-(5-fluoro-3-pyridyl)-2-oxo-ethyl]-5-oxo-N-[4-(pentafluoro-λ6-sulfanyl)phenyl]piperazine-2-carboxamide]
HCov OC43; [3]
  IC50: < 2 µM
[1]
  IC50: < 2 µM
229E Mpro; 229E Mpro EC50
  EC50: < 2 µM

## N#CN1CC(=O)NCC1C(=O)N(c1ccc(S(F)(F)(F)(F)F)cc1)C(C(=O)NC1CCC(F)(F)CC1)c1cncc(F)c1 (single isomer, unassigned) [Compound 1160 Isomer 2, 1-cyano-N-[2-[(4,4-difluorocyclohexyl)amino]-1-(5-fluoro-3-pyridyl)-2-oxo-ethyl]-5-oxo-N-[4-(pentafluoro-λ6-sulfanyl)phenyl]piperazine-2-carboxamide]
HCov OC43; read-out: OC43 IC50 (uM) MEDIAN, median, listed as 1160 Isomer 2
  IC50: 2 to 10 µM
[1]
  IC50: 2 to 10 µM
229E Mpro; 229E Mpro EC50
  EC50: 2 to 10 µM

## N#CN1CC(=O)NCC1C(=O)N(c1ccc(S(F)(F)(F)(F)F)cc1)C(C(=O)NC1CCC(F)(F)CC1)c1cncc(F)c1 (single isomer, unassigned) [Compound 1160 Isomer 3, 1-cyano-N-[2-[(4,4-difluorocyclohexyl)amino]-1-(5-fluoro-3-pyridyl)-2-oxo-ethyl]-5-oxo-N-[4-(pentafluoro-λ6-sulfanyl)phenyl]piperazine-2-carboxamide]
HCov OC43; read-out: OC43 IC50 (uM) MEDIAN, median, listed as 1160 Isomer 3
  IC50: 2 to 10 µM
[1]
  IC50: 2 to 10 µM
229E Mpro; 229E Mpro EC50
  EC50: < 2 µM

## N#CN1CC(=O)NCC1C(=O)N(c1ccc(S(F)(F)(F)(F)F)cc1)C(C(=O)NC1CCC(F)(F)CC1)c1cncc(F)c1 (single isomer, unassigned) [Compound 1160 Isomer 4, 1-cyano-N-[2-[(4,4-difluorocyclohexyl)amino]-1-(5-fluoro-3-pyridyl)-2-oxo-ethyl]-5-oxo-N-[4-(pentafluoro-λ^6-sulfanyl)phenyl]piperazine-2-carboxamide]
HCov OC43; read-out: OC43 IC50 (uM) MEDIAN, median, listed as 1160 Isomer 4
  IC50: 2 to 10 µM
[1]
  IC50: 2 to 10 µM
229E Mpro; 229E Mpro EC50
  EC50: < 2 µM

From patent US20220380347A1, “INHIBITORS OF CYSTEINE PROTEASES AND METHODS OF USE THEREOF” (Pardes Biosciences, Inc., priority 2020, published 2022)
